Test results from US9566262B2, “Itch suppression by fucoxanthin” (THE RITSUMEIKAN TRUST, priority 2015, dated 2017).

Tests used:
[1] = tested on: NC/Nga mice; assay: BrdU uptake in auricular lymph node cells of NC/Nga mice (ELISA); assay type: in vivo; settings: topical application for 5 weeks, BrdU i.p. on day 34, vs Vaseline
Text: On day 12, day 19, day 26 and day 33 after starting application of Vaseline or fucoxanthin, 0.8% picryl chloride (PiCl) was further applied to the back skin of the mice. The behaviors of the mice were observed by video monitoring. On day 34 after starting application of Vaseline or fucoxanthin, bromodeoxyuridine (BrdU, Nacalai Tesque) ([…]) was intraperitoneally administered to the mice. At 5 weeks after starting application of Vaseline or fucoxanthin, the time each mouse spent for scratching behavior in 10 minutes was measured by video monitoring. Then, the mice were sacrificed and the auricular lymph node, blood and skin were obtained. Serum IgE content was determined by enzyme-linked immunosorbent assay (ELISA) using Mouse IgE Assay Kit (Morinaga Institute of Biological Science, Inc.). The auricular lymph node was digested with 0.1% trypsin/0.1% collagenase, the obtained dissociated cells were suspended by pipetting, and the enzyme reaction was stopped by adding Dulbecco's modified Eagle medium (DMEM) containing 10% fetal bovine serum (Wako Pure Chemical Industries, Ltd.). BrdU uptake was determined by ELISA using Cell Proliferation ELISA, BrdU (Colorimetric) (Roche Diagnostics K.K.).

[2] = tested on: Cebpα; assay: Real time PCR gene expression in bone marrow cells cultured with IL-3; assay type: cell-based, mice; settings: vs DMSO
Procedure: (§1) Bone marrow cells obtained from 8-week-old female mice was cultured in a medium for conditioning containing IL-3. On the day the bone marrow cells were obtained (day 0), 10 μM fucoxanthin or dimethyl sulfoxide (DMSO) as a control was added to the culture solution and the cells were cultured for 1, 2, 3 or 4 weeks. Quantitative real time PCR was performed according to the method described in Kosaka et al. (supra). Five different cDNA pool dilutions were used for the experiments. The expression levels of PCR products were normalized to that of a housekeeping gene, GAPDH or β-actin, and the measured values were compared with cycle threshold value (Ct value). The primers used are shown below.
(§2) The housekeeping genes GAPDH and β-actin were used for normalization as internal standards. All measurements were performed 4 times.

[3] = tested on: FcεRIα; assay: as above; assay type: cell-based, mice; settings: 10 μM added day 0, cultured 1-4 weeks, vs DMSO
Procedure: as §1, §2

[4] = tested on: GATA-1; assay: as above; assay type: cell-based, mice; settings: 10 μM added day 0, cultured 1-4 weeks, vs DMSO
Procedure: as §1, §2

[5] = tested on: GATA-2; assay: as above; assay type: cell-based, mice; settings: 10 μM added day 0, cultured 1-4 weeks, vs DMSO
Procedure: as §1, §2

[6] = tested on: Mitf1; assay: as above; assay type: cell-based, mice; settings: 10 μM added day 0, cultured 1-4 weeks, vs DMSO
Procedure: as §1, §2

[7] = tested on: PU.1; assay: as above; assay type: cell-based, mice; settings: 10 μM added day 0, cultured 1-4 weeks, vs DMSO
Procedure: as §1, §2

[8] = tested on: histidine decarboxylase (Hdc); assay: as above; assay type: cell-based, mice; settings: 10 μM added day 0, cultured 1-4 weeks, vs DMSO
Procedure: as §1, §2

[9] = tested on: Cebpα-luc; assay: Luciferase reporter assay in HEK293 cells; assay type: cell-based; settings: HEK293, 0.1, 1 or 10 μM for 48 hours, vs DMSO
Text: (§3) The plasmids pGL3-Cebpα promoter-luc and pGL3-Mitf1 promoter-luc were provided by Dr. Hua Huang (University of Colorado school, Denver, USA). The plasmid NF-κB-luc was purchased from Agilent Technologies (Santa Clara, Calif.). The GATA-responsive reporter vector was provided by Dr. Ishijima (Takasaki University of Health and welfare, Gunma, Japan). Three GATA motifs from mouse α-1 globulin gene (5′-TGATAA-3′) were tandemly inserted into Sma I site of pRBGP3. HDC promoter was provided by Dr. Ootsu (Tohoku University school of Medicine, Sendai, Japan) and cloned into Kpn I-Hind III site of pGL4.10 (Hdc promoter-luc). The reporter assay was performed according to the method described in Kanatani, N. et al. Briefly, HEK293 cells were transfected with each of the luciferase constructs (0.2 μg) or pRL-CMV (Promega, Madison, Wis.) (0.001 μg). At 3 hours after transfection, the cells were treated with fucoxanthin (0.1 μM, 1 μM or 10 μM) or DMSO for 48 hours and reporter assay was performed using Dual-Luciferase® Reporter Assay System (Promega). Luciferase activity was measured using luminometer model TD20/20n (Turner BioSystems, Sunnyvale, Calif.) and normalized to Renilla luciferase activity expressed by CMV promoter.

[10] = tested on: Hdc-luc; assay: Luciferase reporter assay in HEK293 cells; assay type: cell-based; settings: HEK293, 0.1, 1 or 10 μM for 48 hours, vs DMSO
Text: as §3

[11] = tested on: Mitf1-luc; assay: Luciferase reporter assay in HEK293 cells; assay type: cell-based; settings: HEK293, 0.1, 1 or 10 μM for 48 hours, vs DMSO
Text: as §3

[12] = tested on: NF-κB-luc; assay: Luciferase reporter assay in HEK293 cells; assay type: cell-based; settings: HEK293, 0.1, 1 or 10 μM for 48 hours, vs DMSO
Text: as §3

CC(=O)O[C@H]1CC(C)(C)C(=C=C/C(C)=C/C=C/C(C)=C/C=C/C=C(C)/C=C/C=C(\C)C(=O)C[C@@]23O[C@]2(C)C[C@@H](O)CC3(C)C)[C@](C)(O)C1 [fucoxanthin]
BrdU uptake (cell proliferation in the auricular lymph node) [1]: not affected | expression of Cebpα, 3 to 4 weeks ([2]; 10 μM added day 0, 3 to 4 weeks after starting culture): remarkably upregulated | expression of Cebpα, first 2 weeks ([2]; 10 μM added day 0, first 2 weeks of culture): downregulated | expression of FcεRIα [3]: downregulated | expression of GATA-1 [4]: downregulated | expression of GATA-2 [5]: downregulated | expression of Mitf1 [6]: did not change significantly | expression of PU.1 [7]: did not change significantly | expression of Hdc [8]: downregulated | Cebpα-luc reporter activity [9]: not regulated | Hdc-luc reporter activity [10]: not regulated | Mitf1-luc reporter activity [11]: not regulated | NF-κB activity (NFκB-luc) [12]: not affected
